# Patent US20240228572A1 (i2o Therapeutics, Inc., priority 2020, published 2024)
# *1 amine or outer side, *2 acyl side, *3 side chain or, on linkers, in order; H or OH if unused. Where a SMILES comes first, the peptide text is derived from it. Bridges are numbered along the chain shown (N, C = ends). Side-chain parts run from the residue outwards. [ ]: non-standard residue; d: D form. The star is where a group is joined. C20 diacid = O=C(O)CCCCCCCCCCCCCCCCCCC(=O)*; γGlu = O=C(O)[C@H](CCC(=O)[*:2])N[*:1]; AEEA = NCCOCCOCC(=O)O; Aib = CC(C)(N)C(=O)O
# Columns and labels:
# [1] = molecular target: T1, human GLP-1 receptor (GLP-1R) (Homo sapiens, UniProt P43220); assay: cAMP accumulation assay, CHO-K1 cells stably expressing human GLP-1R; assay type: cell-based; details: cAMP accumulation, mean pEC50, Table 10
# T1 construct: expressed in transfected cells
# T1 sequence (P43220 24-463): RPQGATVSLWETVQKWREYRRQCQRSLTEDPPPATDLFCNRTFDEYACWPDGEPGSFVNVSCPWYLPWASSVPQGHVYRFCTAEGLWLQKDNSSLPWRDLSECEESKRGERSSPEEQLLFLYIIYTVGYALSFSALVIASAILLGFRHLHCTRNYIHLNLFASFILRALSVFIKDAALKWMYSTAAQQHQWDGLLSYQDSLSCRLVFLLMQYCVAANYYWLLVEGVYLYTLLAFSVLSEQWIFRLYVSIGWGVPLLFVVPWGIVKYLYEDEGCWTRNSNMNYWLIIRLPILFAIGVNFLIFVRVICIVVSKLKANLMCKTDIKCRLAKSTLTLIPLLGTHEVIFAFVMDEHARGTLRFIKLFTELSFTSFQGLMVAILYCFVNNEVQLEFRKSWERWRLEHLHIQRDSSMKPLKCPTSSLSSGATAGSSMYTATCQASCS
# [2] = molecular target: T2, human Glucagon receptor (GCGR) (Homo sapiens, UniProt P47871); assay: cAMP accumulation assay, CHO-K1 cells expressing human GCGR; assay type: cell-based; details: mean pEC50, Table 10
# T2 construct: A cDNA fragment encoding the full-length open reading frame of the human GCGR; expressed in transfected cells; host or cells: CHO-K1, pcDNA3.1+, Lipofectamine 2000
# T2 sequence (P47871 26-477): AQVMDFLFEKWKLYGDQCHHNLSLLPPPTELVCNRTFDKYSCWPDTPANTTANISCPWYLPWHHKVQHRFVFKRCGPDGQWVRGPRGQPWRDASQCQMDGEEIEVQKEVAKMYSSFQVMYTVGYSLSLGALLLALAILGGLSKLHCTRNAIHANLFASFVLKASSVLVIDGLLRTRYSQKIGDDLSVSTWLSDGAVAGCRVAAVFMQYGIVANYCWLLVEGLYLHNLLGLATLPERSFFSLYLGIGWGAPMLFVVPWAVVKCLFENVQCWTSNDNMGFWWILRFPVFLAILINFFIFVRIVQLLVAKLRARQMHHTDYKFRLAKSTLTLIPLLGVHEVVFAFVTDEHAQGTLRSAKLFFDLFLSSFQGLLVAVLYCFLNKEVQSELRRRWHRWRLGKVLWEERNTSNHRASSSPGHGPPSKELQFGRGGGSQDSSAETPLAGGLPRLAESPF
# Source text: In the presence of the non-specific cAMP/cGMP phosphodiesterase inhibitor, 3-isobutyl-1-methylxanthine (IBMX), accumulating cAMP can be measured in vitro using common detection methods. Thus, it is possible to estimate an in vitro potency (pEC50) for peptides activating each of these receptors using fit dose-response curves for cAMP accumulation.
# A cDNA fragment encoding the full-length open reading frame of the cynomolgus monkey GLP-1R (Genebank accession #XM_028847603 was cloned into pcDNA3.1+ for expression in CHO-K1 cells. A cDNA fragment encoding the full-length open reading frame of the human GCGR (Genebank accession #NM_000160 was cloned into pcDNA3.1+ for expression in CHO-K1 cells. A cDNA fragment encoding the full-length open reading frame of the rat GCGR (Genebank accession #NM_12091 was cloned into pcDNA3.1+ for expression in CHO-K1 cells. A cDNA fragment encoding the full-length open reading frame of the cynomolgus monkey GCGR (Genebank accession #XM_005585255 was cloned into pcDNA3.1+ for expression in CHO-K1 cells.
# On day 1, CHO-K1 cells were plated at 1.5 million cells per T75 flask in 90% F12-K media supplemented with 10% FBS. On day 3 cells were transfected with 40 mcg of each expression plasmid using Lipofectamine 2000 transfection reagent. On day 5, cells were dispensed at 1000 cells per well in white 384-well OptiPlates in 5 mcL of assay buffer consisting of 1×HBSS, 5 mM HEPES, 0.5 mM IBMX, and 0.1% casein.
# Peptides were serially diluted 4-fold in assay buffer to final concentrations ranging from 1×10^−9 M to 9.5×10^−16 M. Two assay controls consisting of 50 mcM forskolin (cAMP system maximum) or assay buffer only (cAMP system minimum) were also prepared. Five microliters of each peptide-concentration, or assay control, was added to triplicate wells and incubated for thirty minutes at room temperature. During this incubation step a 4× europium labelled cAMP tracer solution and a 4× Ulight®-anti-cAMP solution (consisting of an anti-cAMP monoclonal antibody labelled with Ulight™ dye) was prepared according to the manufacturer's protocol (PerkinElmer LANCE Ultra cAMP kit). Following this incubation, 5 mcL europium labelled cAMP and 5 mcL Ulight anti-cAMP antibody was added to each well. The plate was covered to prevent evaporation and incubated for 60 minutes at room temperature in the dark. Plates were read on an Envision fluorescent plate reader (PerkinElmer).
# Test values were first normalized to the system maximum and system minimum averaged values in Excel using the formula: (test value−system min average)/(system max average -system min average)*100. Normalized test values represent a baseline corrected percentage of the system maximum cAMP response induced by forskolin. Data from up to 3 replicate tests were analyzed for each peptide. Potency values were estimated using GraphPad Prism software (v7.04) by fitting data to a 4-parameter logistic curve model: Y=Bottom+(Top−Bottom)/(1+10^((LogEC50−X))). The Hill slope was constrained to 1.0. EC50 values were converted to pEC50 values using the formula: pEC50=−Log (EC50).
SMILES,EC50 [1],EC50 [2]
CC(C)C[C@H](NC(=O)[C@H](Cc1ccc(O)cc1)NC(=O)[C@H](CCCCN)NC(=O)[C@H](CO)NC(=O)[C@H](Cc1ccc(O)cc1)NC(=O)[C@H](CC(=O)O)NC(=O)[C@H](CO)NC(=O)[C@@H](NC(=O)[C@H](Cc1ccccc1)NC(=O)[C@@H](NC(=O)CNC(=O)[C@H](Cc1c[nH]cn1)NC(=O)[C@H](CO)NC(=O)[C@@H](N)Cc1ccc(O)cc1)[C@@H](C)O)[C@@H](C)O)C(=O)N[C@@H](CC(=O)O)C(=O)N[C@@H](CCCCNC(=O)CC[C@H](NC(=O)CC[C@H](NC(=O)COCCOCCNC(=O)CCCCCCCCCCCCCCCCCCC(=O)O)C(=O)O)C(=O)O)C(=O)N[C@@H](CCCCN)C(=O)N[C@@H](Cc1ccc(O)cc1)C(=O)N[C@@H](C)C(=O)N[C@@H](CCC(N)=O)C(=O)N[C@@H](CCC(=O)O)C(=O)N[C@@H](Cc1ccccc1)C(=O)NC(C)(C)C(=O)N[C@@H](CCC(N)=O)C(=O)N[C@@H](Cc1c[nH]c2ccccc12)C(=O)N[C@@H](CC(C)C)C(=O)N[C@@H](CCC(=O)O)C(=O)N[C@@H](CC(=O)O)C(=O)N[C@@H](CCC(=O)O)C(=O)N1CCC[C@H]1C(=O)N[C@@H](CO)C(=O)N[C@@H](CO)C(=O)NCC(=O)N[C@@H](C)C(=O)N1CCC[C@H]1C(=O)N1CCC[C@H]1C(=O)N1CCC[C@H]1C(=O)N[C@@H](CO)C(=O)O [Compound A7] (H-YSHGTFTSDYSKYLDK([γGlu-γGlu-AEEA-C20 diacid])KYAQEF[Aib]QWLEDEPSSGAPPPS-OH; N-terminus assumed),> 1 nM,0.02 nM
CC(C)C[C@H](NC(=O)[C@H](Cc1ccc(O)cc1)NC(=O)[C@H](CCCCN)NC(=O)[C@H](CO)NC(=O)[C@H](Cc1ccc(O)cc1)NC(=O)[C@H](CC(=O)O)NC(=O)[C@H](CO)NC(=O)[C@@H](NC(=O)[C@H](Cc1ccccc1)NC(=O)[C@@H](NC(=O)CNC(=O)[C@H](Cc1c[nH]cn1)NC(=O)[C@H](CO)NC(=O)[C@@H](N)Cc1ccc(O)cc1)[C@@H](C)O)[C@@H](C)O)C(=O)N[C@@H](CC(=O)O)C(=O)N[C@@H](CCCCNC(=O)CC[C@H](NC(=O)CC[C@H](NC(=O)COCCOCCNC(=O)CCCCCCCCCCCCCCCCCCC(=O)O)C(=O)O)C(=O)O)C(=O)N[C@@H](CCCCN)C(=O)N[C@@H](Cc1ccc(O)cc1)C(=O)N[C@@H](C)C(=O)N[C@H]1CCC(=O)NCCCC[C@@H](C(=O)N[C@@H](Cc2c[nH]c3ccccc23)C(=O)N[C@@H](CC(C)C)C(=O)N[C@@H](CCC(=O)O)C(=O)N[C@@H](CCCCN)C(=O)N[C@@H](CCC(=O)O)C(=O)N2CCC[C@H]2C(=O)N[C@@H](CO)C(=O)N[C@@H](CO)C(=O)NCC(=O)N[C@@H](C)C(=O)N2CCC[C@H]2C(=O)N2CCC[C@H]2C(=O)N2CCC[C@H]2C(=O)N[C@@H](CO)C(=O)O)NC(=O)[C@H](C(C)C)NC(=O)[C@H](Cc2ccccc2)NC(=O)[C@H](CCCCN)NC1=O [Compound A26] (H-YSHGTFTSDYSKYLDK([γGlu-γGlu-AEEA-C20 diacid])KYAEKFVKWLEKEPSSGAPPPS-OH; lactam 20-24; N-terminus assumed),> 1 nM,0.00794 nM
CC(C)C[C@H](NC(=O)[C@H](Cc1ccc(O)cc1)NC(=O)[C@H](CCCCN)NC(=O)[C@H](CO)NC(=O)[C@H](Cc1ccc(O)cc1)NC(=O)[C@H](CC(=O)O)NC(=O)[C@H](CO)NC(=O)[C@@H](NC(=O)[C@H](Cc1ccccc1)NC(=O)[C@@H](NC(=O)CNC(=O)[C@H](Cc1c[nH]cn1)NC(=O)[C@H](CO)NC(=O)[C@@H](N)Cc1ccc(O)cc1)[C@@H](C)O)[C@@H](C)O)C(=O)N[C@@H](CC(=O)O)C(=O)N[C@@H](CCCCNC(=O)CC[C@H](NC(=O)CC[C@H](NC(=O)COCCOCCNC(=O)CCCCCCCCCCCCCCCCCCC(=O)O)C(=O)O)C(=O)O)C(=O)N[C@@H](CCCCN)C(=O)N[C@@H](Cc1ccc(O)cc1)C(=O)N[C@@H](C)C(=O)N[C@H]1CCC(=O)NCCCC[C@@H](C(=O)N[C@@H](Cc2c[nH]c3ccccc23)C(=O)N[C@@H](CC(C)C)C(=O)N[C@@H](CCC(=O)O)C(=O)N[C@@H](CC(=O)O)C(=O)N[C@@H](CCC(=O)O)C(=O)N2CCC[C@H]2C(=O)N[C@@H](CO)C(=O)N[C@@H](CO)C(=O)NCC(=O)N[C@@H](CCC(=O)O)C(=O)N2CCC[C@H]2C(=O)N2CCC[C@H]2C(=O)N2CCC[C@H]2C(=O)N[C@@H](CO)C(=O)O)NC(=O)[C@H](C(C)C)NC(=O)[C@H](Cc2ccccc2)NC(=O)[C@H](CCCCN)NC1=O [Compound A31] (H-YSHGTFTSDYSKYLDK([γGlu-γGlu-AEEA-C20 diacid])KYAEKFVKWLEDEPSSGEPPPS-OH; lactam 20-24; N-terminus assumed),> 1 nM,0.00126 nM
CC(C)C[C@H](NC(=O)[C@H](Cc1ccc(O)cc1)NC(=O)[C@H](CCCCN)NC(=O)[C@H](CO)NC(=O)[C@H](Cc1ccc(O)cc1)NC(=O)[C@H](CC(=O)O)NC(=O)[C@H](CO)NC(=O)[C@@H](NC(=O)[C@H](Cc1ccccc1)NC(=O)[C@@H](NC(=O)CNC(=O)[C@H](Cc1c[nH]cn1)NC(=O)[C@H](CO)NC(=O)[C@@H](N)Cc1ccc(O)cc1)[C@@H](C)O)[C@@H](C)O)C(=O)N[C@@H](CC(=O)O)C(=O)N[C@@H](CCCCNC(=O)CC[C@H](NC(=O)CC[C@H](NC(=O)COCCOCCNC(=O)CCCCCCCCCCCCCCCCCCC(=O)O)C(=O)O)C(=O)O)C(=O)N[C@@H](CCCCN)C(=O)N[C@@H](Cc1ccc(O)cc1)C(=O)N[C@@H](C)C(=O)N[C@@H](CCC(N)=O)C(=O)N[C@@H](CCC(=O)O)C(=O)N[C@@H](Cc1ccccc1)C(=O)NC(C)(C)C(=O)N[C@@H](CCCCN)C(=O)N[C@@H](Cc1c[nH]c2ccccc12)C(=O)N[C@@H](CC(C)C)C(=O)N[C@@H](CCC(=O)O)C(=O)N[C@@H](CC(=O)O)C(=O)N[C@@H](CCC(=O)O)C(=O)N1CCC[C@H]1C(=O)N[C@@H](CO)C(=O)N[C@@H](CO)C(=O)NCC(=O)N[C@@H](C)C(=O)N1CCC[C@H]1C(=O)N1CCC[C@H]1C(=O)N1CCC[C@H]1C(=O)N[C@@H](CO)C(=O)O [Compound A9] (H-YSHGTFTSDYSKYLDK([γGlu-γGlu-AEEA-C20 diacid])KYAQEF[Aib]KWLEDEPSSGAPPPS-OH; N-terminus assumed),> 1 nM,0.0251 nM
CC(C)C[C@H](NC(=O)[C@H](Cc1ccc(O)cc1)NC(=O)[C@H](CCCCN)NC(=O)[C@H](CO)NC(=O)[C@H](Cc1ccc(O)cc1)NC(=O)[C@H](CC(=O)O)NC(=O)[C@H](CO)NC(=O)[C@@H](NC(=O)[C@H](Cc1ccccc1)NC(=O)[C@@H](NC(=O)CNC(=O)[C@H](Cc1c[nH]cn1)NC(=O)[C@H](CO)NC(=O)[C@@H](N)Cc1ccc(O)cc1)[C@@H](C)O)[C@@H](C)O)C(=O)N[C@@H](CC(=O)O)C(=O)N[C@@H](CCCCNC(=O)CC[C@H](NC(=O)CC[C@H](NC(=O)COCCOCCNC(=O)CCCCCCCCCCCCCCCCCCC(=O)O)C(=O)O)C(=O)O)C(=O)N[C@@H](CCCCN)C(=O)N[C@@H](Cc1ccc(O)cc1)C(=O)N[C@@H](C)C(=O)N[C@@H](CCC(N)=O)C(=O)N[C@@H](CCC(=O)O)C(=O)N[C@@H](Cc1ccccc1)C(=O)N[C@H](C(=O)NC(C)(C)C(=O)N[C@@H](Cc1c[nH]c2ccccc12)C(=O)N[C@@H](CC(C)C)C(=O)N[C@@H](CCC(=O)O)C(=O)N(C)[C@@H](CCC(=O)O)C(=O)N[C@@H](CCC(=O)O)C(=O)N1CCC[C@H]1C(=O)N[C@@H](CO)C(=O)N[C@@H](CO)C(=O)NCC(=O)N[C@@H](C)C(=O)N1CCC[C@H]1C(=O)N1CCC[C@H]1C(=O)N1CCC[C@H]1C(=O)N[C@@H](CO)C(=O)O)C(C)C [Compound A18],> 1 nM,0.0398 nM
